Experimental data as given in publication PMC8062632, “Structural studies of phosphorylation-dependent interactions between the V2R receptor and arrestin-2” (Nature Communications, 2021).

Tests used:
Format in all cases: cell-based
V2R-WT [1] = assay: FlAsH-BRET recruitment of c-Raf-1 to arrestin2; conditions: HEK293 cells, Argipressin 10 μM, 37 °C, 10 min
Method: (§1) The interaction between arrestin2 and c-Raf-1 was measured by the FlAsH-BRET method. […] Data are expressed as relative values of ΔBRET ratio with the mean ± SEM of three independent experiments (n = 3). […] Source data are provided in the Source. Data file.
(§2) After 24 h of transfection, the cells were detached and distributed into 96-well plates at a density of ~25,000 cells per well. After another 24 h incubation at 37 °C, the cells were labeled FlAsH-EDT2 for 40 min at 37 °C and washed twice with Tyrode’s buffer (140 mM NaCl, 2.7 mM KCl, 1 mM CaCl2, 12 mM NaHCO3, 5.6 mM D-glucose, 0.5 mM MgCl2, 0.37 mM NaH2PO4, and 25 mM HEPES, pH = 7.4) and stimulated with or without Argipressin (final concentration of 10 μM) at 37 °C for 10 min Luciferase substrate coelenterazine-h was added at a final concentration of 5 μM before light emissions were recorded using a Mithras LB940 microplate reader (Berthold Technologies) equipped with BRET filter sets. The BRET signal was determined by calculating the ratio of the light intensity emitted by YFP ([…]) over the light intensity emitted by Rluc ([…]). Source data are provided in a Source Data file.

V2R-3 (V2R-S357A) [2] = assay: FlAsH-BRET recruitment of c-Raf-1 to arrestin2; conditions: HEK293 cells, Argipressin 10 μM, 37 °C, 10 min
Method: as §1, §2

[3] = tested on: V2R-S357A mutant (V2Rpp-3 site); assay: arrestin2 recruitment BRET assay (V2R-Rluc / arrestin2-YFP); conditions: HEK293 cells, 37 °C, 10 min, normalized to maximal response of V2R-WT
Method: (§3) After 24 h of transfection, the cells were detached and distributed into 96-well plates at a density of ~25,000 cells per well. After another 24 h incubation at 37 °C, the cells were washed twice with Tyrode’s buffer (140 mM NaCl, 2.7 mM KCl, 1 mM CaCl2, 12 mM NaHCO3, 5.6 mM D-glucose, 0.5 mM MgCl2, 0.37 mM NaH2PO4, and 25 mM HEPES, pH = 7.4) and incubated with vehicle or different concentration ligands (Argipressin) at 37 °C for 10 min Luciferase substrate coelenterazine-h was added at a final concentration of 5 μM before light emissions were recorded using a Mithras LB940 microplate reader (Berthold Technologies) equipped with BRET filter sets. The BRET signal was determined by calculating the ratio of the light intensity emitted by YFP (530/20 nm) over the light intensity emitted by Rluc (485/20 nm). Source data are provided in a Source Data file.
(§4) Supplementary Fig. 14. Surface expression and arrestin2 recruitment toward different V2R phosphor- […]
(§5) a-b). Elisa experiments to assay the expression levels of the wild type and indicated mutants of V2R or V2R-Rluc in HEK293 cells. Data from three independent experiments (n=3) are presented as mean ± SD. Statistical differences between WT and mutations were determined by two-sided one-way ANOVA with Tukey test. “ns”: the […]
(§6) c). The vasopressin-induced arrestin2 recruitment to different V2R phospho-deficient mutants were compared with V2R-WT, examined by BRET assay in a concentration dependent manner. n = 3 biologically independent replicates were examined for three independent experiments. Data (means ± SEM) of each mutant were normalized to […]
(§7) maximal response of V2R-WT. d). Statistical analysis of the Emax and pEC50 of vasopressin induced arrestin2 recruitment to V2R WT or V2R […]

V2R-T360A (V2Rpp-4 site) = assay: as above; conditions: HEK293 cells, 37 °C, 10 min, normalized to maximal response of V2R-WT
Method: as §3, §4, §5, §6, §7

[4] = tested on: V2R-S363A/S364A (V2Rpp-6-7 site); assay: as above; conditions: HEK293 cells, 37 °C, 10 min, normalized to maximal response of V2R-WT
Method: as §3, §4, §5, §6, §7

[5] = tested on: wild-type V2R and V2R mutants; assay: as above; conditions: HEK293 cells; different V2R mutants compared with wild-type V2R; 37 °C, 10 min
Method: as §3, §4, §5, §6, §7

V2R-4 (V2R-T360A) = assay: FlAsH-BRET recruitment of MEK1 to arrestin2; conditions: HEK293 cells; for ΔBRET ratio, MEK1 recruitment to arrestin2: V2R-4, Argipressin 10 μM, 37 °C, 10 min
Method: (§8) The blue ball: K357 site in arrestin2; Yellow pentagram: the position of FlAsH labeled in MEK1. […] Data are expressed as ΔBRET ratio relative values and represent the mean ± SEM of three independent experiments (n = 3). […] Source data are provided in the Source Data file.
(§9) 24 h after transfection, the cells were detached and distributed into 96-well plates at a density of ~25,000 cells per well. After another 24 h of incubation at 37 °C, the cells were labeled FlAsH-EDT2 for 40 min at 37 °C and washed twice with Tyrode’s buffer (140 mM NaCl, 2.7 mM KCl, 1 mM CaCl2, 12 mM NaHCO3, 5.6 mM D-glucose, 0.5 mM MgCl2, 0.37 mM NaH2PO4, and 25 mM HEPES, pH = 7.4) and stimulated with or without Argipressin (final concentration of 10 μM) at 37 °C for 10 min Luciferase substrate coelenterazine-h was added at a final concentration of 5 μM before light emissions were recorded using a Mithras LB940 microplate reader (Berthold Technologies) equipped with BRET filter sets. The BRET signal was determined by calculating the ratio of the light intensity emitted by YFP ([…]) over the light intensity emitted by Rluc ([…]). Source data are provided in a Source Data file.

V2R-WT [6] = assay: FlAsH-BRET recruitment of MEK1 to arrestin2; conditions: HEK293 cells; for ΔBRET ratio, MEK1 recruitment to arrestin2: V2R-WT, Argipressin 10 μM, 37 °C, 10 min
Method: as §8, §9

V2R-3 (V2R-S357A) [7] = assay: FlAsH-BRET recruitment of MEK1 to arrestin2; conditions: HEK293 cells; for ΔBRET ratio, MEK1 recruitment to arrestin2: V2R-3, Argipressin 10 μM, 37 °C, 10 min
Method: as §8, §9

V2R-1 (V2R-T347A) = assay: FlAsH-BRET recruitment of MEK1 to arrestin2; conditions: HEK293 cells; for ΔBRET ratio, MEK1 recruitment to arrestin2: V2R-1, Argipressin 10 μM, 37 °C, 10 min
Method: as §8, §9

[8] = tested on: V2R-6-7 (V2R-S363A/S364A); assay: FlAsH-BRET recruitment of MEK1 to arrestin2; conditions: HEK293 cells; for ΔBRET ratio, MEK1 recruitment to arrestin2: V2R-6-7, Argipressin 10 μM, 37 °C, 10 min
Method: as §8, §9

vasopressin
ΔBRET ratio, c-Raf-1 recruitment to arrestin2 (V2R-WT [1]; Data1): 0.014 | ΔBRET ratio, c-Raf-1 recruitment to arrestin2 (V2R-WT [1]; Data2): 0.012 | ΔBRET ratio, c-Raf-1 recruitment to arrestin2 (V2R-WT [1]; Data3): 0.015 | ΔBRET ratio, c-Raf-1 recruitment to arrestin2 (V2R-3 (V2R-S357A) [2]; Data1): 0.005 | ΔBRET ratio, c-Raf-1 recruitment to arrestin2 (V2R-3 (V2R-S357A) [2]; Data2): 0.005 | ΔBRET ratio, c-Raf-1 recruitment to arrestin2 (V2R-3 (V2R-S357A) [2]; Data3): 0.006 | Emax of arrestin2 recruitment compared to that of wild-type V2R [3]: 60% | Emax of arrestin2 recruitment compared to that of wild-type V2R (V2R-T360A (V2Rpp-4 site)): approximately 30% | Emax of arrestin2 recruitment compared to that of wild-type V2R [4]: approximately 30% | EC50 of vasopressin-induced V2R-arrestin2 interaction [5]: similar | MEK1-arrestin2 association in response to vasopressin stimulation (V2R-4 (V2R-T360A); T360A mutation of V2R, in words): almost abolished | ΔBRET ratio, MEK1 recruitment to arrestin2 (V2R-4 (V2R-T360A); Data1): 0 | ΔBRET ratio, MEK1 recruitment to arrestin2 (V2R-4 (V2R-T360A); Data2): -0.002 | ΔBRET ratio, MEK1 recruitment to arrestin2 (V2R-4 (V2R-T360A); Data3): -0.003 | ΔBRET ratio, MEK1 recruitment to arrestin2 (V2R-WT [6]; Data1): 0.008 | ΔBRET ratio, MEK1 recruitment to arrestin2 (V2R-WT [6]; Data2): 0.005 | ΔBRET ratio, MEK1 recruitment to arrestin2 (V2R-WT [6]; Data3): 0.008 | recruitment of MEK1 to arrestin2 (V2R-WT [6]; wild-type V2 receptor, in words): significantly increased | MEK1-arrestin2 association in response to vasopressin stimulation (V2R-3 (V2R-S357A) [7]; S357A mutation of V2R, in words): almost abolished | ΔBRET ratio, MEK1 recruitment to arrestin2 (V2R-3 (V2R-S357A) [7]; Data1): 0 | ΔBRET ratio, MEK1 recruitment to arrestin2 (V2R-3 (V2R-S357A) [7]; Data2): 0.001 | ΔBRET ratio, MEK1 recruitment to arrestin2 (V2R-3 (V2R-S357A) [7]; Data3): 0.001 | ΔBRET ratio, MEK1 recruitment to arrestin2 (V2R-1 (V2R-T347A); Data1): 0.008 | ΔBRET ratio, MEK1 recruitment to arrestin2 (V2R-1 (V2R-T347A); Data2): 0.004 | ΔBRET ratio, MEK1 recruitment to arrestin2 (V2R-1 (V2R-T347A); Data3): 0.005 | recruitment of MEK1 to arrestin2 (V2R-1 (V2R-T347A); V2 receptor T347A mutant, in words): significantly increased | MEK1-arrestin2 association in response to vasopressin stimulation ([8]; S363A-S364A mutations of V2R, in words): almost abolished | ΔBRET ratio, MEK1 recruitment to arrestin2 ([8]; Data1): 0 | ΔBRET ratio, MEK1 recruitment to arrestin2 ([8]; Data2): 0.001 | ΔBRET ratio, MEK1 recruitment to arrestin2 ([8]; Data3): 0
